Results on 2 compounds are retold here after patent publication US20250145645A1, “BORON CARRYING AGENT, PREPARATION METHOD AND PHARMACEUTICAL FORMULATION THEREOF” (Peking University, priority 2021, published 2025).

Data set [1] concerns rat cerebral 9L gliosarcoma. To be noted: cited from earlier work.
In data set [2] the test system is HS683 cerebral glioma. The experiment in a line: Tissue uptake in mouse cerebral glioma model, ICP-MS. It counts as in vivo, BALB/c mice. The following applies: 500 mg/kg via tail vein, two hours after administration, FIG. 4. As for the experimental part:
Healthy BALB/c mice with an average weight of approximately 21 g were selected and inoculated with HS683 cerebral glioma to establish a mouse cerebral glioma model. After 21 days, the mouse cerebral glioma model was generated, and 500 mg/kg of BPA, temozolomide or compound I solution was injected via the tail vein of the mice. After administration, the major tissues and organs (heart, liver, spleen, lungs, kidneys and tumor sites) of the mice were removed at selected time periods (1 hour, 2 hours, and 4 hours). After washing and weighing, the tissues and organs were digested with concentrated nitric acid. The digested tissue sample was diluted and the concentration in the sample was determined by ICP-MS.

The test system of data set [3] is cerebral glioma U87MG cells. The experiment in a line: Boron uptake in cells, B content by ICP-AES. The following applies: 12 hours, FIG. 3. Format: cell-based. The procedure:
(§1) Compound I was formulated into aqueous solutions of 0.1 mg/g. 0.2 mg/g. 0.4 mg/g. 0.6 mg/g and 0.8 mg/g, added to U87MG, U251, A549 and A375 cell lines cultured in 25T petri dishes, respectively, and incubated in a thermostatic incubator for 12 hours. Subsequently, the cells and culture medium were separated, and the number of cells was determined. After the cells were digested with concentrated nitric acid, the B content in the cells was determined by ICP-AES.
(§2) The […] was 249.772 nm.
(§3) Meanwhile, the BPA was formulated into aqueous solutions of 0.1 mg/g, 0.2 mg/g, 0.4 mg/g, 0.6 mg/g, and 0.8 mg/g, added into U87MG, U251, A375 and HS683 cell lines cultured in 25T petri dishes, respectively, and cultured in a thermostatic incubator for 12 hours. Subsequently, the cells and culture medium were separated, and the number of cells was determined. After the cells were digested with concentrated nitric acid, the B content in the cells was determined by ICP-AES and plotted as shown in FIG. 2.

The subject of data set [4] is glioma cell line U251. Description: Boron uptake in cells, B content by ICP-AES. Format: cell-based. As for the experimental part:
as §1, §2, §3

In data set [5] the test system is U87MG, U251, A549 and A375 cell lines. Description: Boron uptake in tumor cell lines, B content in cells by ICP-AES. To be noted: 0.1-0.8 mg/g aqueous solutions, 12 hours incubation, FIG. 1. It counts as cell-based. The procedure: as §1, §2
Data set [6] has as its system cerebral glioma HS683 cells. Description: Boron uptake in cells, B content by ICP-AES. Format: cell-based. To be noted: 12 hours, FIG. 3.

As to `N[C@@H](Cc1ccc(B(O)O)cc1)C(=O)O` [BPA, ^10B-p-Dicarboxylboronic acid phenylalanine], the “uptake by other types of tumor cells” value in data set [1] was “taken up”.

As for `Cn1nnc2c(C(=O)OCc3ccc([B-]45OCC[N+]4(C)CCO5)cc3)ncn2c1=O` (stereo not shown) [Compound I], the “uptake in the mouse cerebral glioma site compared with BPA” value in data set [2] is “higher than that of BPA”. Moreover, the “cellular uptake compared with BPA” value in data set [3] is “significantly higher than BPA”; in data set [4] (U251 cells, 12 hours, FIG. 3), “significantly higher than BPA”; in data set [6] it was “significantly higher than BPA”. Also, the “uptake, ranking among cell lines” value in data set [4] (U251 versus U87MG, A549, A375, within 12 hours) is recorded as “best uptake”. In addition, the “boron concentration in the cells (B content in every 10^6 cells)” value in data set [5] is listed as “positively correlated with the concentration of the added product”.
